Test results reported in patent US8445502B2, “Pharmaceutical formulations comprising salts of a protein kinase inhibitor and methods of using same” (Astex Pharmaceuticals, Inc., priority 2007, dated 2013).

How the values were obtained:
[1] = test system: Rad51 in cancer cell lines; assay: Rad51 Western blot after ionizing radiation; type: cell-based; details: cells pretreated with MP470
Text: Similar to IR, the sensitivity of cancer cells to platinum-based drugs can be affected by the level of Rad51 protein.

[2] = Acute intravenous toxicity in rat, second study; type: in vivo; details: single intravenous dose
Protocol: In the second IV administration study of MP470 free base, six groups of 6 rats were to be exposed to either vehicle alone or MP470 at 0.625, 1.25, 2.5, 5, or 10 mg/kg. Dosing was administered via a tail vein over approximately 30 minutes. Animals in each group were given a single intravenous dose of the test substance. Animals in the lowest dose group were dosed first, followed by at least a 10 minute period to observe any effects. If no effects were observed or if effects were observed but deemed acceptable the dosing went to the next highest dose using the same progression criteria. Progression was stopped when unacceptable, adverse effects (e.g., severe convulsions or death) occurred or when the highest dose was successfully administered without adverse effects. A control group (formulation vehicle: TV-13) was included for relevant comparison. […] Dosing occurred on Day 0 and termination on Day 4. On Day 4, the animals were sacrificed and subjected to complete, documented, gross necropsy.
Mortality (50%) occurred in the high dose group (10 mg/kg). […] Under the conditions of this study, a maximum tolerated acute dose in the rat for MP470 was determined to be 5 mg/kg. However, a ‘no observable adverse effect level’ could not be determined due to adverse observations apparently associated with vehicle administration.

Rad51 = Rad51 immunohistochemistry in dog colon and skin; type: in vivo; details: for Rad 51 Result: 2 wk post treatment with 300 mg/kg/day × 28, dog 302786
Protocol: A study was performed to develop a testing procedure for validation of IHC Biomarker RAD51 for the staining of tissue micro arrays (TMA). An experimental […] antibody was used (Spring Bioscience Anti-RAD51) and run using testis and lung as control tissues. The antibody was run using the Dako Envision+ detection kit. The incubation times ranged from 15 minutes to 60 minutes. Each experiment was run with and without an antigen retrieval solution with a pH of 6.0. The dilutions used for the Spring Bioscience Anti-RAD51 ranged from 1:50 to 1:500. The best results were obtained when incubated for 30 minutes, with a dilution of 1:50, using the Dako Envision+ detection kit, with antigen retrieval at the pH of 6.0 based on manual scoring by a board certified pathologist. […] Rare nuclear staining was observed.
A study was conducted to investigate the changes in RAD51 expression levels after chronic treatment with MP470 hydrochloride salt two weeks post treatment with oral once daily dosing for 28 days at 300 mg/kg compared to the control (vehicle only, no drug) to healthy dogs. Tissue specimens from the colon and skin were analyzed for RAD51 expression using the procedure described above. The data in Table 9 confirm that MP470.HCl suppresses and sustains the suppression of RAD51 expression levels in normal proliferating tissues such as in colon and skin.
Dose-response effects of MP470.HCl on Rad51 were evaluated in normal beagle dogs that were administered MP470.HCl orally. Colon and skin tissues were obtained from five different groups, including vehicle control group, three groups of differing dose levels of MP470.HCl following a 28 day daily treatment with MP470.HCl, and a post-treatment recovery group two weeks after treatment daily for 28 days with 300 mg/kg of MP470.HCl. These tissue specimens were stained for Rad51 using immunohistochemistry (IHC) techniques on an automated staining platform. A mouse Anti-Rad51 antibody was used for this purpose. Positive and negative controls were used to validate the staining procedure. The data is reported as a percentage based on the scoring of the staining intensity by a board-certified pathologist. Staining intensity was reported as mean percent for n=3 in all cases except the recovery group, where n=1.

in vivo = details: rat; for severely toxic dose / severely toxic dose (STD): 28 days
Protocol: In a chronic tolerability study of MP470 hydrochloride salt in the rat, the animals were dosed 20, 60, 100 or 200 mg/kg/d (males) and 6, 20, 60 and 100 mg/kg/d (females) daily for 28 days. One female rat died after 5 doses at 100 mg/kg/d, however the it was not clear if this was related to the drug. Two additional female rats died on days 28 and 42 (control and 60 mg/kg/d) possibly due the trauma induced by repeated blood collection. There were no clinical signs of severe toxicity prior to deaths. The clinical abnormalities included hunched posture, soft feces and sporadic occurrence of hair loss. […] Although all animals gained weight during the study, the relative gain was lower in the males at 200 mg/kg/d (70% control) and females at 60 and 100 mg/kg/d (83 and 57% control). […] There were signs of recovery after cessation of dosing. There were no drug related adverse ophthalmologic effects or change hematology parameters. Significant clinical chemistry changes included decreases in glucose and triglyceride levels in males at 200 mg/kg/d, and alterations in cholesterol, troponin-1 and alkaline phosphatase in females (60 and 100 mg/kg/d). There was no correlative histopathology for these alterations. There were no drug related adverse changes in urinalysis or organ weight changes. There were sporadic alterations in organ weights but without corresponding microscopic pathology. […] There was adequate systemic exposure in both sexes; however the exposure was not dose-proportional (lower at higher doses). At all doses exposure to females was higher than that in males and exposure on day 27 was higher than that on day 1. There was substantial variability in the half-lives and ranged from 2 to 8 hours. The no observed effect level (NOEL) was 60 mg/kg/d (360 mg/m2/d) for males and 20 mg/kg/d (120 mg/m2/d) for females. In the absence of clear target organ toxicity or signs of severe toxicity a severely toxic dose (STD) could not be calculated. STD is likely to be higher than 100 mg/kg/d for females and 200 mg/kg/d for the males.

In the case of S=C(NCc1ccc2c(c1)OCO2)N1CCN(c2ncnc3c2oc2ccccc23)CC1 [MP470, 4-[1]benzofuro[3,2-d]pyrimidin-4-yl-N-(1,3-benzodioxol-5-ylmethyl)piperazine-1-carbothioamide], the “Rad51 protein level after ionizing radiation” value [1] is reported as “Rad51 remained near control levels even after exposure to IR” and the “maximum tolerated acute dose” value [2] is reported as 5 mg/kg.
In the case of Cl.S=C(NCc1ccc2c(c1)OCO2)N1CCN(c2ncnc3c2oc2ccccc23)CC1 [MP470.HCl, 4-[1]benzofuro[3,2-d]pyrimidin-4-yl-N-(1,3-benzodioxol-5-ylmethyl)piperazine-1-carbothioamide hydrochloride], the “Rad51 staining Skin (%)” value (Rad51; 30 mg/Kg oral daily 28 days, n=3 (vehicle 20)) is reported as 14%, the “Rad51 staining Colon (%)” value (Rad51; 30 mg/Kg oral daily 28 days, n=3 (vehicle 71)) is reported as 61% and the “Rad51 staining Skin (%)” value (Rad51; 100 mg/Kg oral daily 28 days, n=3 (vehicle 20)) is reported as 17%. For the same molecule, the “Rad51 staining Colon (%)” value (Rad51; 100 mg/Kg oral daily 28 days, n=3 (vehicle 71)) was 56%, the “Rad51 staining Skin (%)” value (Rad51; 300 mg/Kg oral daily 28 days, n=3 (vehicle 20)) was 11% and the “Rad51 staining Colon (%)” value (Rad51; 300 mg/Kg oral daily 28 days, n=3 (vehicle 71)) was 35%. The “suppression of Rad51 in tissues of dogs” value (Rad51; 30, 100, 300 mg/kg oral daily 28 days) was “dose-dependent suppression of Rad51”, the “Rad 51 Result” value (Rad51; Colon) was 58% and the “Rad51 staining Skin (%)” value (Rad51; Recovery (2 wk post treatment with 300 mg/kg), n=1 (vehicle 20)) was 7%. For the same molecule, the “Rad51 staining Colon (%)” value (Rad51; Recovery (2 wk post treatment with 300 mg/kg), n=1 (vehicle 71)) was 19%, the “Rad 51 Result” value (Rad51; Skin) was 12% and the half-life (in vivo; both sexes, rats, daily oral dosing 28 days, read-out: half-lives) was 120 to 480 min. For the same molecule, the severely toxic dose (in vivo; female) was > 600 mg/m2/d, the “severely toxic dose (STD)” value (in vivo; female) was “higher than 100 mg/kg/d” and the severely toxic dose (in vivo; male) was > 1200 mg/m2/d. For the same molecule, the “severely toxic dose (STD)” value (in vivo; male) was > 200 mg/kg/day and the “cardiotoxicity (histopathology)” value (in vivo) was “no evidence of cardiotoxicity in either sex”.
